Experimental data as given in publication PMC8237569 (Proceedings of the National Academy of Sciences of the …, 2021).
≈ marks a conversion by molar mass, not a printed value.

Legend:
[1] = tested on: TA-C–resistant M. tuberculosis strains (fbiC, fgd1 mutants); assay type: cell-based
[2] = tested on: NC1=NC2(CCCCC2)N(c2ccc(OCc3cn(CCCCOc4ccc5ccc(=O)oc5c4)nn3)cc2)C(N)=N1; assay: purified protein, by the assay type; details: pH 7.5

| Compound | MIC50 [1] [µM] | other results |
| --- | --- | --- |
| NNC(=O)c1ccncc1 [INH, isoniazid] | 0.4 (≈ 0.0549 µg/mL) | – |
| Nc1ccc(C(=O)O)c(O)c1 [PAS, para-aminosalicylic acid] | 0.2 (≈ 0.0306 µg/mL) | – |
| O=[N+]([O-])c1cn2c(n1)OC[C@@H](OCc1ccc(OC(F)(F)F)cc1)C2 [PTM, pretomanid] | >100 | – |
| CO[C@H]1/C=C/O[C@@]2(C)Oc3c(C)c(O)c4c(O)c(c(/C=N/N5CCN(C)CC5)c(O)c4c3C2=O)NC(=O)/C(C)=C\C=C\[C@H](C)[C@H](O)[C@@H](C)[C@@H](O)[C@@H](C)[C@H](OC(C)=O)[C@@H]1C [RIF, rifampicin] | – | MIC50, RIF [1]: 0.0016 µM (≈ 0.00132 µg/mL) |
| Rv1558 (Mycobacterium tuberculosis H37Rv) | – | Km [2]: 10.01 ± 1.6 µM |
